Data taken from patent publication US20240109917A1 (ACTELION PHARMACEUTICALS LTD, priority 2020, published 2024).
Where two headings read alike, the source gives them in different places.

Target: PDGFRβ (Rattus norvegicus (Rat), UniProt Q05030)
Assay: PDGFRβ Cellular Assay (PDGFRb P-Y751 HTRF in A10 cells stimulated with PDGF-BB)
Type: cell-based
Procedure, shortened: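 Phospho-Y751 PDGFRβ was measured by HTRF in lysates of A10 rat cells. Cells received compound for 3 hours before PDGF-BB stimulation (100 ng/mL working stock).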

Sequence of PDGFRβ (Q05030 32-1097): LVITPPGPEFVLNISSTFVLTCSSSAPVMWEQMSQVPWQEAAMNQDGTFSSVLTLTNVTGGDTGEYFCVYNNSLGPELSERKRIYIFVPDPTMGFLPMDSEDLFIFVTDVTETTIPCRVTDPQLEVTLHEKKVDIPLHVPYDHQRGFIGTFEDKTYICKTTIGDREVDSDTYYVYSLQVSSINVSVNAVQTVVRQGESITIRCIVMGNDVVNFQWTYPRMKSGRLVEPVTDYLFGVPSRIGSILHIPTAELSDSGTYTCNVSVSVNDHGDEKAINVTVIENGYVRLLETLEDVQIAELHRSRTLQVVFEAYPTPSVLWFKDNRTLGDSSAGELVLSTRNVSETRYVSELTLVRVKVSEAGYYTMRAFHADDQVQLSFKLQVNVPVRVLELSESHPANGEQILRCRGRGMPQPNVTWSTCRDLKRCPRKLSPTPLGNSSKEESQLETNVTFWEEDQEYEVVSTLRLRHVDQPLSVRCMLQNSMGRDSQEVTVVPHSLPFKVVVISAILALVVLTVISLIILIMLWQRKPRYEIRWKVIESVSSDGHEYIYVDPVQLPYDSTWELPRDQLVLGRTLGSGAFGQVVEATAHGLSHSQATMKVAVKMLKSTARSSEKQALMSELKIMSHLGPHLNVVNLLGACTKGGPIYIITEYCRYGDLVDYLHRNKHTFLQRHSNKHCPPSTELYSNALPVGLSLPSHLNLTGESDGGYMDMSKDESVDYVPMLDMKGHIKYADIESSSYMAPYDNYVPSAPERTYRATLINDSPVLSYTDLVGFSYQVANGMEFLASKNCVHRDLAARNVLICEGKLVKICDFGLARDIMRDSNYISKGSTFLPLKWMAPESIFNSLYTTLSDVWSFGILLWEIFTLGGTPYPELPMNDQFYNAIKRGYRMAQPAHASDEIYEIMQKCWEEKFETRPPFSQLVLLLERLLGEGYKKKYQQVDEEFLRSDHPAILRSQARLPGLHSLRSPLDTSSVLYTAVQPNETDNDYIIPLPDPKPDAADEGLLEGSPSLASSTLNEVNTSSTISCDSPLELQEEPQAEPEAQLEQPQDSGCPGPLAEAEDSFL

Row | SMILES | IC50 (read-out: PDGFR Cellular IC50) [nM] | IC50 (PDGFR Cellular IC50) [nM]
1 | Cc1ncc(NC(=O)OC2CN(C(C)(C)C)C2)cc1NC(=O)c1cnn2cc(-c3cnn(C)c3)sc12 [Example 252, 1-(tert-butyl)azetidin-3-yl (6-methyl-5-(2-(1-methyl-1H-pyrazol-4-yl)pyrazolo[5,1-b]thiazole-7-carboxamido)pyridin-3-yl)carbamate] | 79.7 | –
2 | Cc1ncc(C(=O)NCCN2CC3CCC2CC3)cc1NC(=O)c1cnn2cc(-c3cnn(C(F)F)c3)sc12 [Example 180, N-(5-((2-(2-azabicyclo[2.2.2]octan-2-yl)ethyl)carbamoyl)-2-methylpyridin-3-yl)-2-(1-(difluoromethyl)-1H-pyrazol-4-yl)pyrazolo[5,1-b]thiazole-7-carboxamide] | – | 38.4
3 | Cc1cc(C(=O)NCCCN2CCCC2(C)C)sc1NC(=O)c1cnn2cc(-c3cnn(C)c3)sc12 [Example 201, N-(5-((3-(2,2-dimethylpyrrolidin-1-yl)propyl)carbamoyl)-3-methylthiophen-2-yl)-2-(1-methyl-1H-pyrazol-4-yl)pyrazolo[5,1-b]thiazole-7-carboxamide] | 1440 | –
4 | Cc1ncc(C(=O)NCCN2CCCC2(C)C)cc1NC(=O)c1cnn2cc(-n3ncc4cccnc43)sc12 [Example 217, N-(5-((2-(2,2-dimethylpyrrolidin-1-yl)ethyl)carbamoyl)-2-methylpyridin-3-yl)-2-(1H-pyrazolo[3,4-b]pyridin-1-yl)pyrazolo[5,1-b]thiazole-7-carboxamide] | 8.9 | –
5 | Cc1ncc(NC(=O)CCCN2CCC23CCC3)cc1NC(=O)c1cnn2cc(-c3cnn(C)c3)sc12 [Example 215, N-(5-(4-(1-azaspiro[3.3]heptan-1-yl)butanamido)-2-methylpyridin-3-yl)-2-(1-methyl-1H-pyrazol-4-yl)pyrazolo[5,1-b]thiazole-7-carboxamide] | – | 80.1
6 | Cc1ncc(C(=O)NC2CN(C(C)(C)C)C2)cc1NC(=O)c1cnn2cc(-c3cnn(C)c3)sc12 [Example 237, N-(5-((1-(tert-butyl)azetidin-3-yl)carbamoyl)-2-methylpyridin-3-yl)-2-(1-methyl-1H-pyrazol-4-yl)pyrazolo[5,1-b]thiazole-7-carboxamide] | – | 619
7 | COc1ncccc1-c1cn2ncc(C(=O)Nc3cc(C(=O)NCCN4CCC[C@H]4C)cnc3C)c2s1 [Example 242, (R)-2-(2-methoxypyridin-3-yl)-N-(2-methyl-5-((2-(2-methylpyrrolidin-1-yl)ethyl)carbamoyl)pyridin-3-yl)pyrazolo[5,1-b]thiazole-7-carboxamide] | 6.1 | –
8 | Cc1ncc(NC(=O)OCCN(C)C2CCCCC2)cc1NC(=O)c1cnn2cc(-c3cnn(C)c3)sc12 [Example 251, 2-(cyclohexyl(methyl)amino)ethyl (6-methyl-5-(2-(1-methyl-1H-pyrazol-4-yl)pyrazolo[5,1-b]thiazole-7-carboxamido)pyridin-3-yl)carbamate] | 28.4 | –
9 | Cc1ncc(C(=O)NCCN2CCCC2)cc1NC(=O)c1cnn2cc(-c3cnn(CC(O)CO)c3)sc12 (stereo not drawn) [Example 225, 2-(1-(2,3-Dihydroxypropyl)-1H-pyrazol-4-yl)-N-(2-methyl-5-((2-(pyrrolidin-1-yl)ethyl)carbamoyl)pyridin-3-yl)pyrazolo[5,1-b]thiazole-7-carboxamide] | > 2000 | –
10 | Cc1cc(C(=O)NCCN(C)C2CCCC2)sc1NC(=O)c1cnn2cc(-c3cnn(C)c3)sc12 [Example 190, N-(5-((2-(cyclopentyl(methyl)amino)ethyl)carbamoyl)-3-methylthiophen-2-yl)-2-(1-methyl-1H-pyrazol-4-yl)pyrazolo[5,1-b]thiazole-7-carboxamide] | – | 147
11 | Cc1cc(C(=O)NCCN2CCOCC23CC3)sc1NC(=O)c1cnn2cc(-c3cnn(C)c3)sc12 [Example 197, N-(5-((2-(7-oxa-4-azaspiro[2.5]octan-4-yl)ethyl)carbamoyl)-3-methylthiophen-2-yl)-2-(1-methyl-1H-pyrazol-4-yl)pyrazolo[5,1-b]thiazole-7-carboxamide] | 613 | –
12 | Cn1cc(-c2cn3ncc(C(=O)Nc4cc(C(=O)NCCN5CCCC5(C)C)ccc4F)c3s2)cn1 [Example 207, N-(5-((2-(2,2-dimethylpyrrolidin-1-yl)ethyl)carbamoyl)-2-fluorophenyl)-2-(1-methyl-1H-pyrazol-4-yl)pyrazolo[5,1-b]thiazole-7-carboxamide] | 3.3 | –
13 | Cc1ncc(NC(=O)OCCN2CCCC2(C)C)cc1NC(=O)c1cnn2cc(-c3cnn(C)c3)sc12 [Example 247, 2-(2,2-dimethylpyrrolidin-1-yl)ethyl (6-methyl-5-(2-(1-methyl-1H-pyrazol-4-yl)pyrazolo[5,1-b]thiazole-7-carboxamido)pyridin-3-yl)carbamate] | 18.3 | –
14 | Cc1ncc(C(=O)NCCN2CCCC2(C)C)cc1NC(=O)c1cnn2cc(-c3cccc4c3cnn4C)sc12 [Example 240, N-(5-((2-(2,2-dimethylpyrrolidin-1-yl)ethyl)carbamoyl)-2-methylpyridin-3-yl)-2-(1-methyl-1H-indazol-4-yl)pyrazolo[5,1-b]thiazole-7-carboxamide] | 11.8 | –
15 | Cc1ncc(NC(=O)CN2CCN(C)CC2)cc1NC(=O)c1cnn2cc(-c3cnn(C)c3)sc12 [Example 232, 2-(1-methyl-1H-pyrazol-4-yl)-N-(2-methyl-5-(2-(4-methylpiperazin-1-yl)acetamido)pyridin-3-yl)pyrazolo[5,1-b]thiazole-7-carboxamide] | 1730 | –
16 | Cc1ncc(NC(=O)OCC(C)N2CCCC2)cc1NC(=O)c1cnn2cc(-c3cnn(C)c3)sc12 (stereo not drawn) [Example 248, 2-(pyrrolidin-1-yl)propyl (6-methyl-5-(2-(1-methyl-1H-pyrazol-4-yl)pyrazolo[5,1-b]thiazole-7-carboxamido)pyridin-3-yl)carbamate] | 31.3 | –
17 | Cc1ncc(C(=O)NCCN(CCO)CC2CCCCC2)cc1NC(=O)c1cnn2cc(-c3cnn(C)c3)sc12 [Example 235, N-(5-((2-((cyclohexylmethyl)(2-hydroxyethyl)amino)ethyl)carbamoyl)-2-methylpyridin-3-yl)-2-(1-methyl-1H-pyrazol-4-yl)pyrazolo[5,1-b]thiazole-7-carboxamide] | 9.5 | –
18 | COc1ncccc1-c1cn2ncc(C(=O)Nc3cc(C(=O)NCCN4CCCC4C)cnc3C)c2s1 (stereo not drawn) [Example 228, 2-(2-Methoxypyridin-3-yl)-N-(2-methyl-5-((2-(2-methylpyrrolidin-1-yl)ethyl)carbamoyl)pyridin-3-yl)pyrazolo[5,1-b]thiazole-7-carboxamide] | 5.6 | –
19 | Cc1ncc(NC(=O)OC[C@H]2CCCN2C)cc1NC(=O)c1cnn2cc(-c3cnn(C)c3)sc12 [Example 244, (R)-(1-methylpyrrolidin-2-yl)methyl (6-methyl-5-(2-(1-methyl-1H-pyrazol-4-yl)pyrazolo[5,1-b]thiazole-7-carboxamido)pyridin-3-yl)carbamate] | – | 22.9
20 | Cc1ncc(C(=O)NCCN2CCCC2)cc1NC(=O)c1cnn2cc(-c3cnn(C)c3)sc12 [Example 219, 2-(1-Methyl-1H-pyrazol-4-yl)-N-(2-methyl-5-((2-(pyrrolidin-1-yl)ethyl)carbamoyl)pyridin-3-yl)pyrazolo[5,1-b]thiazole-7-carboxamide] | 123 | –
21 | Cc1ncc(NC(=O)CN2CCC3(COC3)C2)cc1NC(=O)c1cnn2cc(-c3cnn(C)c3)sc12 [Example 18, N-(5-(2-(2-oxa-6-azaspiro[3.4]octan-6-yl)acetamido)-2-methylpyridin-3-yl)-2-(1-methyl-1H-pyrazol-4-yl)pyrazolo[5,1-b]thiazole-7-carboxamide] | 49.8 | –
22 | Cc1cc(C(=O)NCCN2CCC(O)CC2)sc1NC(=O)c1cnn2cc(-c3cnn(C)c3)sc12 [Example 191, N-(5-((2-(4-hydroxypiperidin-1-yl)ethyl)carbamoyl)-3-methylthiophen-2-yl)-2-(1-methyl-1H-pyrazol-4-yl)pyrazolo[5,1-b]thiazole-7-carboxamide] | > 3000 | –
23 | Cc1ncc(C(=O)NCCN2CCCC2(C)C)cc1NC(=O)c1cnn2cc(-c3cn(C)nc3CO)sc12 [Example 224, N-(5-((2-(2,2-dimethylpyrrolidin-1-yl)ethyl)carbamoyl)-2-methylpyridin-3-yl)-2-(3-(hydroxymethyl)-1-methyl-1H-pyrazol-4-yl)pyrazolo[5,1-b]thiazole-7-carboxamide] | 903 | –
24 | COc1ncccc1-c1cn2ncc(C(=O)Nc3cc(NC(=O)OC[C@@H]4CCCN4C)cnc3C)c2s1 [Example 253, (S)-(1-methylpyrrolidin-2-yl)methyl (5-(2-(2-methoxypyridin-3-yl)pyrazolo[5,1-b]thiazole-7-carboxamido)-6-methylpyridin-3-yl)carbamate] | 4.4 | –
